From patent US9845500B2, “Enzymatic nucleic acid synthesis: compositions and methods for inhibiting pyrophosphorolysis” (LIFE TECHNOLOGIES CORPORATION, priority 2000, dated 2017) come the findings set out here.

The target of one assay is T1, Taq DNA polymerase (Thermus aquaticus, UniProt P19821).
T1 construct: purchased Promega Corporation
Put plainly: Primer extension assay with a single nucleotide, TOP primer/BOT template duplexes (FIG. 1). Type of assay: biochemical. The conditions noted are these: for DNA strand extension and misincorporation on a template with multiple Ts: template BOT-3TC, lanes 10, 11. How it is done:
The ability of a commercially available polymerase to incorporate the novel dNTPs synthesized was monitored using primer extension assays.
This first example illustrates the incorporation of ANS-γ-phosphate dATP to produce extended DNA products from primer/template duplexes. The reactions were carried out in extension buffer and the resulting radiolabeled products were size separated on a 20% denaturing polyacrylamide gel. Data were collected using a phosphorimaging system. Referring now FIG. 1, Lane 1 contained 5′ radiolabeled ‘TOP’ probe in extension buffer. Lane 2 contained Taq DNA polymerase, 50 μM dGTP incubated with a DNA duplex (radiolabeled TOP with excess ‘BOT-Sau’). Lane 3 contained Taq DNA polymerase, 50 μM dATP incubated with a DNA duplex (radiolabeled TOP with excess ‘BOT-Sau’). Lane 4 contained Taq DNA polymerase, 50 μM ANS-γ-dATP incubated with a DNA duplex (radiolabeled TOP with excess ‘BOT-Sau’). Lane 5 contained Taq DNA polymerase, 50 μM dGTP incubated with a DNA duplex (radiolabeled TOP with excess ‘BOT-TC’). Lane 6 contained spill-over from lane 5. Lane 7 contained Taq DNA polymerase, 50 μM dATP incubated with a DNA duplex (radiolabeled TOP with excess ‘BOT-TC’). Lane 8 contained Taq DNA polymerase, 50 μM ANS-γ-dATP incubated with a DNA duplex (radiolabeled TOP with excess ‘BOT-TC’). Lane 9 contained Taq DNA polymerase, 50 μM dGTP incubated with a DNA duplex (radiolabeled TOP with excess ‘BOT-3TC’). Lane 10 contained Taq DNA polymerase, 50 μM dATP incubated with a DNA duplex (radiolabeled TOP with excess ‘BOT-3TC’). Lane 11 contained Taq DNA polymerase, ANS-γ-dATP incubated with a DNA duplex (radiolabeled TOP with excess ‘BOT-3TC’). Lane 12 contained 5′ radiolabeled ‘TOP’ probe in extension buffer. Lane 13 contained 5′ radiolabeled ‘TOP’ probe and Taq DNA polymerase in extension buffer.
In these experiments, Taq DNA polymerase (2.5 units/reaction; Promega Corporation) was incubated in polymerase reaction buffer with 10,000 cpm of 5′-^32P end-labeled ‘TOP’ primer, 10 ng of the indicated single-stranded template, and the specified dNTP. The sequences of the oligonucleotides are shown (Table 1). Extension reactions were incubated for 30 minutes, and terminated by the addition of 1 µl of 0.5 M EDTA. The reactions were lyophilized and resuspended in 3.5 µl of sequencing loading buffer. Reaction products were heat denatured, loaded onto a 20% denaturing polyacrylamide gel, size-separated, and quantified using a phosphorimaging system (Fuji Medical Systems, Inc.).

The next assay has as its system DNA polymerases. Put plainly: Primer extension with several different DNA polymerases, template directing dATP, dATP, dATP, dGTP (FIG. 12). Type of assay: biochemical. The conditions noted are these: only the indicated nucleotide, 100 μM, 30 minutes. How it is done: Different Polymerases React Differently to the ANS-γ-modified Nucleotides: primer extension reactions were performed to determine the ability of various polymerases to incorporate γ-tagged dNTPs during DNA polymerization. Control reactions contained natural dNTPs to monitor for template-directed nucleotide incorporation as well as for misincorporation as shown in FIG. 12. The reactions were performed in the appropriate buffer and contained the specified polymerase, primer/template duplex (radiolabeled ‘TOP’ primer annealed to ‘BOT-3TC’ template), and only the indicated dNTP. The reactions were carried out at room temperature or at 37° C. for 30 minutes and were stopped by the addition of […]. The volume of the reaction was then reduced to approximately 2-4 μL, loading dye was added and the polymerization products were electrophoresed through a 20% denaturing polyacrylamide gel. Arrows indicate the position of the free labeled ‘TOP’. Asterisks indicate 3-base extension.
Primer extension experiments were performed with several different DNA polymerases to determine whether any of them could incorporate the ANS-γ-phosphate modified nucleotides (FIG. 12). These experiments were performed by incubating the indicated polymerase in appropriate extension buffer, 100 μM ANS-γ-modified dATP, and a 5′-^32P end-labeled primer annealed to a template that directed sequential incorporation of dATP, dATP, dATP dGTP. Positive and negative control reactions containing natural dATP or dGTP, respectively, were run in parallel to monitor template-directed nucleotide incorporation or mis-incorporation. Reactions containing dATP should produce 3-base extension products, whereas those containing dGTP should not produce extended products (due to the absence of dATP). No products longer than 3-bases should result, since no reaction contained more than one nucleotide type. […] Reaction products were heat denatured, loaded onto a 20% denaturing polyacrylamide gel, size-separated (2400 V; 1 hour), and detected via phosphorimaging.

Setting [1] is: template BOT-3TC (three A's to be incorporated), lanes 9-11.
Where [2] appears, read: template BOT-Sau (first incorporated base should be dGTP), 50 μM nucleotide, lanes 2-4.
Where [3] appears, read: template BOT-TC (single A to be incorporated), 50 μM nucleotide, lanes 5-8.

T1 sequence (P19821 whole entry): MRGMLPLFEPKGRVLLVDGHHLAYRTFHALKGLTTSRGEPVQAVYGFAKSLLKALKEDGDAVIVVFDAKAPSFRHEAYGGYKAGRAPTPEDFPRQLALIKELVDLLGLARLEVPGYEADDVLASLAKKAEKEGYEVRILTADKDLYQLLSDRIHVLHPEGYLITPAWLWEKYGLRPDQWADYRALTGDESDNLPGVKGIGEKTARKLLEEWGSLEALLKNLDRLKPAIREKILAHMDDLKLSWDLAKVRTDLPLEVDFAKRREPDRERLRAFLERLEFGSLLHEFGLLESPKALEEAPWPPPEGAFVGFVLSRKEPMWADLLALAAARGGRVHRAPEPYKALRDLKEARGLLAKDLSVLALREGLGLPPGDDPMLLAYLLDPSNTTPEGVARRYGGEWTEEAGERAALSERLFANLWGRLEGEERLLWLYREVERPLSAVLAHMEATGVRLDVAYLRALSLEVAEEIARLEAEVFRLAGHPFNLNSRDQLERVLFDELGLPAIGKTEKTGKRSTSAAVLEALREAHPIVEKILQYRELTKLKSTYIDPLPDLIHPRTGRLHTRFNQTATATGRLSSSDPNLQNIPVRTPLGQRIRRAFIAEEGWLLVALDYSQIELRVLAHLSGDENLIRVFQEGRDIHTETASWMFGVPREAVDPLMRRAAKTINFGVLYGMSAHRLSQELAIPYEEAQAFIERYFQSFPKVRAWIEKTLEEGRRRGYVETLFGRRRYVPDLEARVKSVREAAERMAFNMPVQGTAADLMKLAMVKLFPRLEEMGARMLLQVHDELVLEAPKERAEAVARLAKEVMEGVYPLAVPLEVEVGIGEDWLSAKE

Regarding `Nc1ncnc2c1ncn2[C@H]1C[C@H](O)[C@@H](COP(=O)(O)OP(=O)(O)OP(=O)(O)O)O1` [dATP], at Taq DNA polymerase (setting [1]), the “Percent Correct” value came out at 27.11%, the “Percent Mis-Extended” value was 54.92% and the “Total Percent Extended” value was 82.03%. Further, the “DNA strand extension and misincorporation on a template with multiple Ts” value on Taq DNA polymerase is on record as “frequently misincorporated opposite a template C”. Besides, on Taq DNA polymerase (setting [2]), the “Percent Correct” value amounted to 61.99%, the “Percent Mis-Extended” value is 38.01% and the “Total Percent Extended” value turned out to be 38.01%. For the same compound, at Taq DNA polymerase (setting [3]), the “Percent Correct” value is recorded as 15.24%, the “Percent Mis-Extended” value is given as 69.01% and the “Total Percent Extended” value is 84.25%. Also, the “percent extension of the TOP primer (template-directed single base)” value on Taq DNA polymerase (template BOT-TC, first incorporated base should be dATP, lanes 7, 8) amounted to 75%. Further, at Taq DNA polymerase (template BOT-TC, lane 7, percent of the extension products), the “extension products misextended opposite a template C” value was found to be 60%. In addition, the “misextended products further extended by the enzyme's terminal transferase activity” value on Taq DNA polymerase (template BOT-TC, lane 7, percent of the misextended products) stood at 34%. The extension products formed result in the assay on DNA polymerases is on record as “increased amounts of mis-extended products”.
As for `Nc1nc2c(ncn2[C@H]2C[C@H](O)[C@@H](COP(=O)(O)OP(=O)(O)OP(=O)(O)O)O2)c(=O)[nH]1` [dGTP], the “Percent Correct” value at Taq DNA polymerase (setting [1]) was 32.20%; at Taq DNA polymerase (setting [2]), 52.99%; at Taq DNA polymerase (setting [3]), 24.99%. Moreover, the “Percent Mis-Extended” value came out at 67.80% on Taq DNA polymerase (setting [1]), 19.97% at Taq DNA polymerase (setting [2]) and 75.01% on Taq DNA polymerase (setting [3]). In addition, the “Total Percent Extended” value was 67.80% on Taq DNA polymerase (setting [1]), 72.97% at Taq DNA polymerase (setting [2]) and 75.01% at Taq DNA polymerase (setting [3]). For the same compound, the extension products formed entry in the assay on DNA polymerases is “increased amounts of mis-extended products”.
For the compound ANS γ-phosphoamide dATP [ANS-γ-dATP], the “decrease in misextensions, tagged nucleotide versus dATP” value at Taq DNA polymerase (G is to be incorporated, dATP the only nucleotide in the reaction medium) is listed as ~3 fold; on Taq DNA polymerase (a single A is to be incorporated), ~11 fold; at Taq DNA polymerase (three A's are to be incorporated), ~14 fold. Besides, the “Percent Correct” value turned out to be 73.43% on Taq DNA polymerase (setting [1]), 87.43% on Taq DNA polymerase (setting [2]) and 71.14% on Taq DNA polymerase (setting [3]). Besides, the results for the “Percent Mis-Extended” value at Taq DNA polymerase (setting [1]), on Taq DNA polymerase (setting [2]) and on Taq DNA polymerase (setting [3]) were 3.87%, 12.57% and 6.51%, respectively. Besides, the results for the “Total Percent Extended” value at Taq DNA polymerase (setting [1]), on Taq DNA polymerase (setting [2]) and on Taq DNA polymerase (setting [3]) were 77.31%, 12.57% and 77.64%, respectively. For the same compound, the “DNA strand extension and misincorporation on a template with multiple Ts” value at Taq DNA polymerase is listed as “multiple modified nucleotides are incorporated”. Further, at Taq DNA polymerase (template BOT-Sau, first incorporated base should be dGTP (not added), lane 4 vs lane 1), the “non-specific, single-base extension” value is “very little non-specific, single-base extension”. For the same compound, the extension products formed entry with DNA polymerases is on record as “expected 3-base extension products accumulate”.
